Experiments:
[1] = system: Puccinia recondita; test: Fungicidal activity in preventive application (5 days) on wheat; assay type: in vivo, Puccinia recondita on wheat (Salgemma variety); conditions: leaf spray 5 days before inoculation, reduction of affected leaf area vs untreated, scale 0-100
Description: Leaves of wheat plants of the […] variety, grown in pots in a conditioned environment kept at 20° C. and 70% of relative humidity (R.H.), were treated by spraying both sides of the leaves with the compounds and the compositions under testing, dispersed in hydroacetonic solutions at 20% by volume of acetone. After remaining 5 days in a conditioned environment, the plants were sprayed on both sides of the leaves with an aqueous suspension of conidia of Puccinia recondita (2 mg of inoculum per 1 ml of solution for infection). After being sprayed, the plants were kept in a humidity-saturated environment at a temperature ranging from 18 to 24° C. for the incubation period of the fungus (1 day). After this period, the plants were put in a greenhouse with R.H. of 70% and at a temperature of 18-24° C. for 14 days. At the end of this period the external symptoms of the pathogen appeared and it was therefore possible to proceed with the visual assessment of the intensity of the infection. The fungicidal activity was expressed as percentage of reduction of affected leaves areas with respect to those of untreated plants used as control: the scale comprised, as extremes, the value 100 (full activity; healthy plant) and the value 0 (no activity; completely infected plant).

[2] = system: Stagonospora nodorum (SN); test: In vitro growth inhibition of spore suspensions (optical density 405 nm, 43 h); assay type: cell-based; conditions: concentration giving 50% growth inhibition; Stagonospora nodorum spores, 43 hours at room temperature, average of three replicates
[3] = system: wheat plants; test: Phytotoxicity (percentage of leaf necrosis) on wheat plants; assay type: in vivo, wheat (Salgemma variety); conditions: scale 0 (none) to 100
Description: Leaves of wheat plants of the Salgemma variety, grown in pots in a conditioned environment kept at 20° C. and 70% of relative humidity (R.H.), were treated by spraying both sides of the leaves with the compounds and the compositions under testing, dispersed in hydroacetonic solutions at 20% by volume of acetone.
At the same time, the phytotoxicity (percentage of leaf necrosis) induced on the wheat plants by the application of the products and compositions was evaluated: in this case, the scale ranged from 0 (no phytotoxicity) to 100 (completely necrotized plant).

[4] = system: Botrytis cinerea (BC); test: In vitro growth inhibition of spore suspensions (optical density 405 nm, 43 h); assay type: cell-based; conditions: concentration giving 50% growth inhibition; Botrytis cinerea spores, 43 hours at room temperature, average of three replicates

| SMILES | % Activity ([1]; Rate 62.5 ppm) [%] | % Activity ([1]; Rate 125 ppm) [%] | SN EC50 [2] [ppm] | % Phytotoxicity ([3]; Rate 62.5 ppm) [%] | % Phytotoxicity ([3]; Rate 125 ppm) [%] | EC50 against Botrytis cinerea [4] |
| --- | --- | --- | --- | --- | --- | --- |
| CC1CC(C)(C)c2c(F)ccc(NC(=O)c3cn(C)nc3C(F)F)c21 (racemic) [Racemic (I), 3-difluoromethyl-N-(7-fluoro-1,1,3-trimethyl-4-indanyl)-1-methyl-4-pyrazolecarboxamide] | 96 | 98 | 1.1 | 0 | 0 | 0.32 ppm |
| CC1CC(C)(C)c2c(F)ccc(NC(=O)c3cn(C)nc3C(F)F)c21 (single isomer, unassigned; (+)) [(+)-(I), 3-difluoromethyl-N-(7-fluoro-1,1,3-trimethyl-4-indanyl)-1-methyl-4-pyrazolecarboxamide] | 20 | 45 | 72 | 0 | 0 | n.i. |
| CC1CC(C)(C)c2c(F)ccc(NC(=O)c3cn(C)nc3C(F)F)c21 (single isomer, unassigned; (-)) [(−)-(I), 3-difluoromethyl-N-(7-fluoro-1,1,3-trimethyl-4-indanyl)-1-methyl-4-pyrazolecarboxamide] | 96 | 100 | 0.42 | 0 | 0 | 0.17 ppm |
